From patent US8178548B2, “Anti-infective agents and uses thereof” (priority 2007, dated 2012)
Where two headings read alike, the source gives them in different places.

Key:
[1] = tested on: genotype 1a-H77 subgenomic replicon cell line; experiment: HCV Polymerase Replicon Assay, genotype 1a-H77 (luciferase reporter); format: cell-based; conditions: read-out: EC50 1a
[2] = target: T1, HCV polymerase 1A (Δ21 NS5B, H77) (Hepatitis C virus genotype 1a, UniProt P27958); experiment: biochemical
T1 construct: 20 to 50 nM Δ21 NS5B
Method: (§1) Either two-fold serial dilutions (fractional inhibition assay) or a narrower range of dilutions spanning the IC50 of the inhibitor (tight binding assay) of the inhibitors were incubated with 20 mM Tris-Cl pH 7.4, 2 mM MnCl2, 1 mM dithiothreitol, 1 mM ethylene diamine tetraacetic acid (EDTA), 60 to 125 μM GTP and 20 to 50 nM Δ21 NS5B (HCV Strain 1B (BK, Genbank accession number M58335, or H77, Genbank accession number AF011751)) for 15 min at room temperature. The reaction was initiated by the addition of 20 μM CTP, 20 μM ATP, 1 μM ^3H-UTP (10 mCi/umol), 5 nM template RNA and 0.1 U/μl RNase inhibitor (RNasin, Promega), and allowed to proceed for 2 to 4 h at room temperature. Reaction volume was 50 μl. The reaction was terminated by the addition of 1 volume of 4 mM spermine in 10 mM Tris-Cl pH 8.0, 1 mM EDTA. After incubation for at least 15 min at room temperature, the precipitated RNA was captured by filtering through a GF/B filter (Millipore) in a 96 well format. The filter plate was washed three times with 200 μl each of 2 mM spermine, 10 mM Tris-Cl pH 8.0, 1 mM EDTA, and 2 times with ethanol. After air-drying, 30 μl of Microscint 20 scintillation cocktail (Packard) was added to each well, and the retained cpm were determined by scintillation counting. […] Retained cpm were plotted vs. inhibitor concentration and fit to equation 1 using non-linear regression (ref. 1) to obtain the IC50 values: Retained cpm=A[sqrt{(IC50+It−Et)^2+4*IC50*Et}−(IC50+It−Et)]
(§2) Ref. Morrison, J. F. and S. R. Stone. 1985. Approaches to the study and analysis of the inhibition of enzymes by slow- and tight-binding inhibitors. Comments Mol. Cell. Biophys. 2: 347-368.
(§3) The sequence of the template RNA used was: 5′-[…] […] […] […] […] […] […] […] […] […] […] […] […] […] […] […] […]-3′ (SEQ ID NO:1).

[3] = target: T2, HCV polymerase 1B (Δ21 NS5B, HCV Strain 1B BK) (Hepatitis C virus genotype 1b, UniProt P26663); experiment: biochemical
T2 construct: 20 to 50 nM Δ21 NS5B
Method: as §1, §2, §3

[4] = tested on: genotype 1b-Con1 subgenomic replicon cell line; experiment: HCV Polymerase Replicon Assay, genotype 1b-Con1 (luciferase reporter); format: cell-based; conditions: read-out: EC50 1b
[5] = Hepatitis C virus, 72 h, replicon 1a-H77, luciferase, three days
[6] = Hepatitis C virus, 72 h, replicon 1b-Con1, luciferase, three days

T1 sequence (P27958 2421-2990, stated change not applied): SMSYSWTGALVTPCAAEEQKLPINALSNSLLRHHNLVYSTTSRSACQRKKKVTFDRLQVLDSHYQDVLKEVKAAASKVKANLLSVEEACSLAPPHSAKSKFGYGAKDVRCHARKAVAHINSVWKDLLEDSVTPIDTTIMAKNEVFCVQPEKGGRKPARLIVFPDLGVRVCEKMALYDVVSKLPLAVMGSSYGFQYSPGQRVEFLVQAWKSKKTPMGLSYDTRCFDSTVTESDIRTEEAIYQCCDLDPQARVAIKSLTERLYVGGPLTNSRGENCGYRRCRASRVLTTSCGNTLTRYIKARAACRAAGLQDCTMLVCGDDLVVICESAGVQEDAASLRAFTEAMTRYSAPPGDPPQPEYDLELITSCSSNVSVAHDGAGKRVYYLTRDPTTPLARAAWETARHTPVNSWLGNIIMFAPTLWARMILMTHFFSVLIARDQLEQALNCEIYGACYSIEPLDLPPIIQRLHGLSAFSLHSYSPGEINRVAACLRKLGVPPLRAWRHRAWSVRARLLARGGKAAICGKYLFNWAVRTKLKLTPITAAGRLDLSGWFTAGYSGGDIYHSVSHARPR
T2 sequence (P26663 2420-2989, stated change not applied): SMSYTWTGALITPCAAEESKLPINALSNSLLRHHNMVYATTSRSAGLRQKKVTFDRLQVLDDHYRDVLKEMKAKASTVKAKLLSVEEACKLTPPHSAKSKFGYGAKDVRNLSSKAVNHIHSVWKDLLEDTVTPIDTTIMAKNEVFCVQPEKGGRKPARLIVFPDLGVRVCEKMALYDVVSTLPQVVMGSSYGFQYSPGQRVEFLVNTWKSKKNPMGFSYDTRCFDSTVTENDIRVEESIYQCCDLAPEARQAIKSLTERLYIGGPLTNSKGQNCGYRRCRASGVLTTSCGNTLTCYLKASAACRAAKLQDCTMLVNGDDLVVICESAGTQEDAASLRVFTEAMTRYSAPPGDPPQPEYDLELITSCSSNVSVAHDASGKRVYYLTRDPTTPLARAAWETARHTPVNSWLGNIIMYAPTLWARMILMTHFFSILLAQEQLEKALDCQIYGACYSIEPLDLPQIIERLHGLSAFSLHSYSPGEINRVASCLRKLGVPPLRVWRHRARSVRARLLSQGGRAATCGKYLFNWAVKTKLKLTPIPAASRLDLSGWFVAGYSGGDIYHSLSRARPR

Compound | EC50 ([1]; Hepatitis C virus, 72 h) [µM] | IC50 [2] [µM] | IC50 [3] [µM] | EC50 ([4]; Hepatitis C virus, 72 h) [µM] | EC50 [1, 5] [µM] | EC50 [4, 6] [µM] | EC50 ([1]; replicon 1a-H77, luciferase, three days) [µM] | IC50 ([2]; HCV polymerase 1a, read-out: IC50 1a) [µM] | IC50 ([3]; HCV polymerase 1b, read-out: IC50 1b) [µM] | EC50 ([4]; replicon 1b-Con1, luciferase, three days) [µM]
COc1c(C=C(F)c2ccc(NS(C)(=O)=O)cc2)cc(N2CCC(=O)NC2=O)cc1C(C)(C)C (racemic) [IA-L1-1.21, N-(4-(2-(3-tert-butyl-5-(2,4-dioxotetrahydropyrimidin-1(2H)-yl)-2-methoxyphenyl) 1-fluorovinyl)phenyl)methanesulfonamide] | < 0.01 | 0.01 to 0.1 | 0.01 to 0.1 | < 0.01 |  |  |  |  |  | 
COCCNC(=O)c1cc(NS(C)(=O)=O)ccc1/C=C/c1cc(-n2ccc(=O)[nH]c2=O)cc(C(C)(C)C)c1OC [IB-L1-1.9, 2-{(E)-2-[3-tert-Butyl-5-(2,4-dioxo-3,4-dihydro-2H-pyrimidin-1-yl)-2-methoxy-phenyl]-vinyl}-5-methanesulfonylamino-N-(2-methoxy-ethyl)-benzamide] | 0.01 to 0.1 | < 0.01 | 0.01 to 0.1 | < 0.01 |  |  |  |  |  | 
CO/N=C/c1cc(NS(C)(=O)=O)ccc1/C=C/c1cc(-n2ccc(=O)[nH]c2=O)cc(C(C)(C)C)c1OC [IB-L1-1.19, N-(4-(3-tert-butyl-5-(2,4-dioxo-3,4-dihydropyrimidin-1(2H)-yl)-2-methoxystyryl)-3-((E)-(methoxyimino)methyl)phenyl)methanesulfonamide] | 0.01 to 0.1 | < 0.01 | 0.01 to 0.1 | < 0.01 |  |  |  |  |  | 
COc1c(/C=C/c2ccc(NS(C)(=O)=O)cc2)cc(-n2ccc(=O)[nH]c2=O)cc1C(C)(C)CO [IB-L1-1.45, (E)-N-(4-(5-(2,4-dioxo-3,4-dihydropyrimidin-1(2H)-yl)-3-(1-hydroxy-2-methylpropan-2-yl)-2-methoxystyryl)phenyl)methanesulfonamide] |  | < 0.01 | 0.01 to 0.1 |  | 0.01 to 0.1 | < 0.01 |  |  |  | 
COc1cc(NS(C)(=O)=O)ccc1/C=C/c1cc(N2CCC(=O)NC2=O)cc(C(C)(C)C)c1OC [IA-L1-1.27, N-(4-{(E)-2-[3-tert-Butyl-5-(dioxo-tetrahydro-pyrimidin-1-yl)-2-methoxy-phenyl]-vinyl}-3-methoxy-phenyl)-methanesulfonamide] |  |  |  |  |  |  | 0.01 to 0.1 | < 0.01 | 0.01 to 0.1 | < 0.01
COc1c(/C=C/c2ccc(NS(C)(=O)=O)cc2)cc(-n2ccc(=O)[nH]c2=O)cc1-c1ccco1 [IB-L1-1.46, (E)-N-(4-(5-(2,4-dioxo-3,4-dihydropyrimidin-1(2H)-yl)-3-(furan-2-yl)-2-methoxystyryl)phenyl)methanesulfonamide] |  | 0.01 to 0.1 | 0.01 to 0.1 |  | 0.1 to 1 | < 0.01 |  |  |  | 
COc1c(/C=C/c2ccc(N)cc2)cc(N2CCC(=O)NC2=O)cc1C(C)(C)C [IA-L1-1.13, (E)-1-(3-(4-aminostyryl)-5-tert-butyl-4-methoxyphenyl)dihydropyrimidine-2,4(1H,3H)-dione] | > 1 | 0.1 to 1 | 0.1 to 1 | 0.1 to 1 |  |  |  |  |  | 
COc1c(/C=C(\F)c2ccc(NS(C)(=O)=O)cc2)cc(N2CCC(=O)NC2=O)cc1C(C)(C)C [IA-L1-1.4, (Z)-N-(4-(2-(3-tert-butyl-5-(2,4-dioxotetrahydropyrimidin-1(2H)-yl)-2-methoxyphenyl)-1-fluorovinyl)phenyl)methanesulfonamide] | < 0.01 | < 0.01 | < 0.01 | < 0.01 |  |  |  |  |  | 
COc1c(/C=C/c2ccc(NS(C)(=O)=O)cc2C=O)cc(-n2ccc(=O)[nH]c2=O)cc1C(C)(C)C [IB-L1-1.6, N-(4-{(E)-2-[3-tert-Butyl-5-(2,4-dioxo-3,4-dihydro-2H-pyrimidin-1-yl)-2-methoxy-phenyl]-vinyl}-3-formyl-phenyl)-methanesulfonamide] | < 0.01 | < 0.01 | 0.01 to 0.1 | < 0.01 |  |  |  |  |  | 
CCOC(=O)c1cc(NS(C)(=O)=O)ccc1/C=C/c1cc(-n2ccc(=O)[nH]c2=O)cc(C(C)(C)C)c1OC [IB-L1-1.11, 2-{(E)-2-[3-tert-Butyl-5-(2,4-dioxo-3,4-dihydro-2H-pyrimidin-1-yl)-2-methoxy-phenyl]-vinyl}-5-methanesulfonylamino-benzoic acid ethyl ester] | 0.01 to 0.1 | < 0.01 | 0.01 to 0.1 | < 0.01 |  |  |  |  |  | 
COc1c(/C=C/c2ccc(NS(C)(=O)=O)cc2-c2ncc[nH]2)cc(-n2ccc(=O)[nH]c2=O)cc1C(C)(C)C [IB-L1-1.16, (E)-N-(4-(3-tert-butyl-5-(2,4-dioxo-3,4-dihydropyrimidin-1(2H)-yl)-2-methoxystyryl)-3-(1H-imidazol-2-yl)phenyl)methanesulfonamide] | 0.1 to 1 | < 0.01 | 0.01 to 0.1 | 0.01 to 0.1 |  |  |  |  |  | 
COCc1cc(NS(C)(=O)=O)ccc1/C=C/c1cc(-n2ccc(=O)[nH]c2=O)cc(C(C)(C)C)c1OC [IB-L1-1.13, (E)-N-(4-(3-tert-butyl-5-(2,4-dioxo-3,4-dihydropyrimidin-1(2H)-yl)-2-methoxystyryl)-3-(methoxymethyl)phenyl)methanesulfonamide] | 0.01 to 0.1 | < 0.01 | 0.01 to 0.1 | < 0.01 |  |  |  |  |  | 
COc1c(/C=C(\Cl)c2ccc(NS(C)(=O)=O)cc2)cc(N2CCC(=O)NC2=O)cc1C(C)(C)C [IA-L1-1.3, (Z)-N-(4-(2-(3-tert-butyl-5-(2,4-dioxotetrahydropyrimidin-1(2H)-yl)-2-methoxyphenyl)-1-chlorovinyl)phenyl)methanesulfonamide] | 0.01 to 0.1 | < 0.01 | < 0.01 | < 0.01 |  |  |  |  |  | 
COCCN(C)C(=O)c1cc(NS(C)(=O)=O)ccc1/C=C/c1cc(-n2ccc(=O)[nH]c2=O)cc(C(C)(C)C)c1OC [IB-L1-1.24, 2-{(E)-2-[3-tert-butyl-5-(2,4-dioxo-3,4-dihydro-2H-pyrimidin-1-yl)-2-methoxy-phenyl]-vinyl}-5-methanesulfonylamino-N-(2-methoxy-ethyl)-N-methyl-benzamide] | 0.01 to 0.1 | 0.01 to 0.1 | 0.01 to 0.1 | < 0.01 |  |  |  |  |  | 
COc1c(/C=C/c2ccc(NS(C)(=O)=O)cc2NC(=O)OC(C)(C)C)cc(-n2ccc(=O)[nH]c2=O)cc1C(C)(C)C [IB-L1-1.32, (E)-tert-butyl 2-(3-tert-butyl-5-(2,4-dioxo-3,4-dihydropyrimidin-1(2H)-yl)-2-methoxystyryl)-5-(methylsulfonamido)phenylcarbamate] | 0.1 to 1 | 0.1 to 1 | 0.1 to 1 | 0.01 to 0.1 |  |  |  |  |  | 
COc1c(/C=C/c2cc(F)c(NS(C)(=O)=O)cc2C)cc(-n2ccc(=O)[nH]c2=O)cc1C(C)(C)C [IB-L1-1.15, (E)-N-(4-(3-tert-butyl-5-(2,4-dioxo-3,4-dihydropyrimidin-1(2H)-yl)-2-methoxystyryl)-2-fluoro-5-methylphenyl)methanesulfonamide] | < 0.01 | < 0.01 | 0.01 to 0.1 | < 0.01 |  |  |  |  |  | 
COc1c(CCc2ccc(NS(C)(=O)=O)cc2)cc(-n2ccc(=O)[nH]c2=O)cc1C(C)(C)C [IB-L5-2-1.2, N-(4-(3-tert-butyl-5-(2,4-dioxo-3,4-dihydropyrimidin-1(2H)-yl)-2-methoxyphenethyl)phenyl)methanesulfonamide] |  | 0.01 to 0.1 | 0.01 to 0.1 |  | 0.1 to 1 | 0.01 to 0.1 |  |  |  | 
COc1c(/C=C/c2ccc(N(C(C)=O)S(C)(=O)=O)cc2)cc(N2CCC(=O)NC2=O)cc1C(C)(C)C [IA-L1-1.11, (E)-N-(4-(3-tert-butyl-5-(2,4-dioxotetrahydropyrimidin-1(2H)-yl)-2-methoxystyryl)phenyl)-N-(methylsulfonyl)acetamide] | < 0.01 | 0.01 to 0.1 | 0.01 to 0.1 | < 0.01 |  |  |  |  |  | 
COc1c(/C=C/c2ccc(NS(C)(=O)=O)cc2C(=O)O)cc(-n2ccc(=O)[nH]c2=O)cc1C(C)(C)C [IB-L1-1.4, (E)-2-(3-tert-butyl-5-(2,4-dioxo-3,4-dihydropyrimidin-1(2H)-yl)-2-methoxystyryl)-5-(methylsulfonamido)benzoic Acid] | 0.01 to 0.1 | < 0.01 | < 0.01 | < 0.01 |  |  |  |  |  | 
